Measured values published in ChEMBL document CHEMBL5055685, “Discovery of the First Potent IDO1/IDO2 Dual Inhibitors: A Promising Strategy for Cancer Immunotherapy” (J Med Chem, 2021).
Active and inactive are the calls of the source. The rule behind the calls is not given here.

Key:
[1] = target: MAP kinase-activated protein kinase 3 (Homo sapiens) (UniProt Q16644); assay: Inhibition of MAPKAPK3 (unknown origin) at 1 uM
[2] = target: Tyrosine-protein kinase JAK2 (Homo sapiens) (UniProt O60674); assay: Inhibition of JAK2 (unknown origin) at 1 uM
[3] = target: Protein kinase C epsilon type (Homo sapiens) (UniProt Q02156); assay: Inhibition of PKCepsilon (unknown origin)at 1 uM
[4] = target: Serine/threonine-protein kinase 16 (Homo sapiens) (UniProt O75716); assay: Inhibition of STK16 (unknown origin) at 1 uM
HCT-116 [5] = assay: Antitumor immunity in BALB/c mouse xenografted with human HCT-116 cells assessed as increase in CD86 expression in CD11c+ cells by propidium iodide staining based flow cytometry analysis (reference value: 72 %); format: functional
[6] = target: Tyrosine-protein kinase Lyn (Homo sapiens) (UniProt P07948); assay: Inhibition of LYN (unknown origin) at 1 uM
[7] = target: SNF-related serine/threonine-protein kinase (Homo sapiens) (UniProt Q9NRH2); assay: Inhibition of SNRK (unknown origin) at 1 uM
[8] = target: Cyclin-dependent kinase 1/cyclin B1 (Homo sapiens) (UniProt P06493+P14635); assay: Inhibition of CDK1/cyclinB (unknown origin) at 1 uM; format: protein-complex assay
Chain of Cyclin-dependent kinase 1/cyclin B1 (Homo sapiens) (P06493 whole entry, looked up): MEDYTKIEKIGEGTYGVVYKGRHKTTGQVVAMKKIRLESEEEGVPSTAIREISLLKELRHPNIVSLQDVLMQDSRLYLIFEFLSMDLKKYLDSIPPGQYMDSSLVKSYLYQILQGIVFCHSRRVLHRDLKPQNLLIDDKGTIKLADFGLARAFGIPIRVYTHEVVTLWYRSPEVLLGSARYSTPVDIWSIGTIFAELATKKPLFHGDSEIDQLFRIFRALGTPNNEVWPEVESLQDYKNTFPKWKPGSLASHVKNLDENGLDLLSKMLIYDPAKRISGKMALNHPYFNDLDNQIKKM
Chain of Cyclin-dependent kinase 1/cyclin B1 (Homo sapiens) (P14635 whole entry, looked up): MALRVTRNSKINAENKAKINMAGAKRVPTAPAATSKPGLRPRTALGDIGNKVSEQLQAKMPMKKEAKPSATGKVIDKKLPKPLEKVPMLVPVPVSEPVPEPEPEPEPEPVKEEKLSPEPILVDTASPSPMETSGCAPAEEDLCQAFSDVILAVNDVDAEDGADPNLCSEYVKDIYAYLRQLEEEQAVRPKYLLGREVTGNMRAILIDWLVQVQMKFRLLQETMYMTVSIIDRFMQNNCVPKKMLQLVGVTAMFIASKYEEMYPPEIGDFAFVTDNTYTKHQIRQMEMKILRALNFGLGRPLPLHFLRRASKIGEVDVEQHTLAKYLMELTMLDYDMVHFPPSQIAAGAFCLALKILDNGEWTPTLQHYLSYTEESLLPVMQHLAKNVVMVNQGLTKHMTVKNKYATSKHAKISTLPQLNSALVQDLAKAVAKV

[9] = target: Beta-adrenergic receptor kinase 1 (Homo sapiens) (UniProt P25098); assay: Inhibition of GRK2 (unknown origin) at 1 uM
[10] = target: 3-phosphoinositide-dependent protein kinase 1 (Homo sapiens) (UniProt O15530); assay: Inhibition of PDK1 (unknown origin) at 1 uM
[11] = target: Serine/threonine-protein kinase WNK3 (Homo sapiens) (UniProt Q9BYP7); assay: Inhibition of WNK3 (unknown origin) at 1 uM
[12] = target: Myosin light chain kinase family member 4 (Homo sapiens) (UniProt Q86YV6); assay: Inhibition of MYLK4 (unknown origin) at 1 uM
Chain of Myosin light chain kinase family member 4 (Homo sapiens) (Q86YV6 whole entry): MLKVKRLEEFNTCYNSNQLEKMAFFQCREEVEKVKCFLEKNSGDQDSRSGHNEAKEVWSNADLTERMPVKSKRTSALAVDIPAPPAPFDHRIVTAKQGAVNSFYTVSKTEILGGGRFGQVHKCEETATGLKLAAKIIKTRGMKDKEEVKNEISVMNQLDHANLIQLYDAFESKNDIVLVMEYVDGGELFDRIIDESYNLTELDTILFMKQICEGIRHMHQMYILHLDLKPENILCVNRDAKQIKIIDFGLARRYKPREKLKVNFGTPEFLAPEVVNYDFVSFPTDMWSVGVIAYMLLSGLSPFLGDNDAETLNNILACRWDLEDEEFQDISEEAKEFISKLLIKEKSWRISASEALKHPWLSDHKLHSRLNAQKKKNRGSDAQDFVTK

[13] = target: Mitogen-activated protein kinase 10 (Homo sapiens) (UniProt P53779); assay: Inhibition of JNK3 (unknown origin) at 1 uM
[14] = target: Tyrosine-protein kinase Mer (Homo sapiens) (UniProt Q12866); assay: Inhibition of c-MER (unknown origin) at 1 uM
[15] = target: Serine/threonine-protein kinase MARK2 (Homo sapiens) (UniProt Q7KZI7); assay: Inhibition of MARK2 (unknown origin) at 1 uM
Chain of Serine/threonine-protein kinase MARK2 (Homo sapiens) (Q7KZI7 whole entry): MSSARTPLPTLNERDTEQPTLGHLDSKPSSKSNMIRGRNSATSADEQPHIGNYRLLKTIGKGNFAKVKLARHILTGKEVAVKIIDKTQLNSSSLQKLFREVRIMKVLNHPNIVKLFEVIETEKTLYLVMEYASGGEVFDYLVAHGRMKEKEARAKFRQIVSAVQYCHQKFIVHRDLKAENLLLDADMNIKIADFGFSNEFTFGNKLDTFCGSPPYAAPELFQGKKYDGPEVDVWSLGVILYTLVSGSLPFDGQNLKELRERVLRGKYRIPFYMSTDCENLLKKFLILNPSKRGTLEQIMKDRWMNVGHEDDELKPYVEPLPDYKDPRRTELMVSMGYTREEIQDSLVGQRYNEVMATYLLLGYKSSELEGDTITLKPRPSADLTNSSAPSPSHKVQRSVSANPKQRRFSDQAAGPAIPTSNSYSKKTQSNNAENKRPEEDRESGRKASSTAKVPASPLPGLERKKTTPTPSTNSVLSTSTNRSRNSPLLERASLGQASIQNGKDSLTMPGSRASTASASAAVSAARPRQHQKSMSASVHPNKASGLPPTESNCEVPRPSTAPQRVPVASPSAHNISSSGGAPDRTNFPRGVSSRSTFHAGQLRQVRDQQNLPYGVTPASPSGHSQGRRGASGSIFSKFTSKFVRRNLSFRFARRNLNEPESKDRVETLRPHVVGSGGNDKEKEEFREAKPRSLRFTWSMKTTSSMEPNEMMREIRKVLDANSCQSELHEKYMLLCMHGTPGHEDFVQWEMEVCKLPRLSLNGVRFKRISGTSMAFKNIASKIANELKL

[16] = target: Fibroblast growth factor receptor 1 (Homo sapiens) (UniProt P11362); assay: Inhibition of FGFR1 (unknown origin) at 1 uM
Chain of Fibroblast growth factor receptor 1 (Homo sapiens) (P11362 22-822 limits assumed): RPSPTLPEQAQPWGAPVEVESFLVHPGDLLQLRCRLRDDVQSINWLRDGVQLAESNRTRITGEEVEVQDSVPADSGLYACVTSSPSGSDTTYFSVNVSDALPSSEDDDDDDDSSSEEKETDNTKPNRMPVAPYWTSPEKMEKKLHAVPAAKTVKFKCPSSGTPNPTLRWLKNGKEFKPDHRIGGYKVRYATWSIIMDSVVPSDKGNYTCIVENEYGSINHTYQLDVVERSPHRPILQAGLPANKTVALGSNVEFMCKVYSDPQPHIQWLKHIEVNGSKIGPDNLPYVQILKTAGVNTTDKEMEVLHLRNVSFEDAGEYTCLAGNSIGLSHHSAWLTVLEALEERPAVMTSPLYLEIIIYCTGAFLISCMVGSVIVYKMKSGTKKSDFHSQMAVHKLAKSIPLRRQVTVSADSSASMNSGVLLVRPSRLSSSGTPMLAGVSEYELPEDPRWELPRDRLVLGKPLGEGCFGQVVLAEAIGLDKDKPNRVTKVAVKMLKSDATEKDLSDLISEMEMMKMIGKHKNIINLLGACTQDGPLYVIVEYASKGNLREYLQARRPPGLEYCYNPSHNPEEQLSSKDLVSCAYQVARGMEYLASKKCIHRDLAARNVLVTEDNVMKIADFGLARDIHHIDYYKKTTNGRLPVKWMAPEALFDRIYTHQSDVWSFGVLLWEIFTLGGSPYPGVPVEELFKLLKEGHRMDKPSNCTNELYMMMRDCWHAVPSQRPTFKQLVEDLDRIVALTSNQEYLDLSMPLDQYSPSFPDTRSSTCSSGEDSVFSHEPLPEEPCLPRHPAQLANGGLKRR

[17] = AUC (0 to t) in Sprague-Dawley rat at 5 mg/kg, iv; format: ADME, organism-based; set-up: dose 5 mg/kg, route iv; conditions: in vivo
[18] = target: Ephrin type-A receptor 4 (Homo sapiens) (UniProt P54764); assay: Inhibition of EPHA4 (unknown origin) at 1 uM
HCT-116 [19] = assay: Cytotoxicity against human HCT-116 cells assessed as reduction in cell viability by CCK8 assay; format: functional, cell-based
[20] = target: RAC-alpha serine/threonine-protein kinase (Homo sapiens) (UniProt P31749); assay: Inhibition of AKT1 (unknown origin) at 1 uM
[21] = target: Platelet-derived growth factor receptor beta (Homo sapiens) (UniProt P09619); assay: Inhibition of PDGFRbeta (unknown origin) at 1 uM
[22] = target: Dual specificity tyrosine-phosphorylation-regulated kinase 4 (Homo sapiens) (UniProt Q9NR20); assay: Inhibition of DYRK4 (unknown origin) at 1 uM
[23] = target: Megakaryocyte-associated tyrosine-protein kinase (Homo sapiens) (UniProt P42679); assay: Inhibition of CTK (unknown origin) at 1 uM
Chain of Megakaryocyte-associated tyrosine-protein kinase (Homo sapiens) (P42679 whole entry): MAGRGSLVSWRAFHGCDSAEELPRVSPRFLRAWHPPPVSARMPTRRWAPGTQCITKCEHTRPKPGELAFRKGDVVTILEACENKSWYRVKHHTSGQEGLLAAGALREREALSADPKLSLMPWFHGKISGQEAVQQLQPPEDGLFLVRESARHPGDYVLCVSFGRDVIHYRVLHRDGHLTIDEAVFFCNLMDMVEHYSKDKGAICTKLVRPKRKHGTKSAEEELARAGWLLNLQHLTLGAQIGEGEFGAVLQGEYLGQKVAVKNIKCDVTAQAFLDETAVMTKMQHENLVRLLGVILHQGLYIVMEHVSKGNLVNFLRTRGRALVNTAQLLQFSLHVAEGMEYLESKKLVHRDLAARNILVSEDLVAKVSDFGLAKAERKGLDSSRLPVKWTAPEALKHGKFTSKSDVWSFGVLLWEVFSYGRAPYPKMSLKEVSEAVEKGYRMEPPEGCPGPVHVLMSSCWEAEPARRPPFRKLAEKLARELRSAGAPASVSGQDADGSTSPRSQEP

Mus musculus = assay: In vivo inhibition of IDO1/IDO2 in BALB/c mouse xenografted with human HCT-116 cells assessed as increase in tryptophan level in serum by […]; format: functional, organism-based
[24] = target: Activin receptor type-1-like (Homo sapiens) (UniProt P37023); assay: Inhibition of ALK1 (unknown origin) at 1 uM
[25] = target: Angiopoietin-1 receptor (Homo sapiens) (UniProt Q02763); assay: Inhibition of TIE2 (unknown origin) at 1 uM
[26] = target: cGMP-dependent protein kinase 1 (Homo sapiens) (UniProt Q13976); assay: Inhibition of PKG1beta (unknown origin) at 1 uM
[27] = target: Platelet-derived growth factor receptor alpha (Homo sapiens) (UniProt P16234); assay: Inhibition of PDGFRalpha (unknown origin) at 1 uM
[28] = target: Calcium/calmodulin-dependent protein kinase type 1G (Homo sapiens) (UniProt Q96NX5); assay: Inhibition of CAMK1G (unknown origin) at 1 uM
[29] = target: Serine/threonine-protein kinase 24 (Homo sapiens) (UniProt Q9Y6E0); assay: Inhibition of MST3 (unknown origin) at 1 uM
[30] = target: Rhodopsin kinase GRK1 (Homo sapiens) (UniProt Q15835); assay: Inhibition of GRK1 (unknown origin) at 1 uM
[31] = target: Dual specificity protein kinase CLK2 (Homo sapiens) (UniProt P49760); assay: Inhibition of CLK2 (unknown origin) at 1 uM
[32] = target: Casein kinase II subunit alpha' (Homo sapiens) (UniProt P19784); assay: Inhibition of CK2A2 (unknown origin) at 1 uM
Chain of Casein kinase II subunit alpha' (Homo sapiens) (P19784 whole entry, looked up): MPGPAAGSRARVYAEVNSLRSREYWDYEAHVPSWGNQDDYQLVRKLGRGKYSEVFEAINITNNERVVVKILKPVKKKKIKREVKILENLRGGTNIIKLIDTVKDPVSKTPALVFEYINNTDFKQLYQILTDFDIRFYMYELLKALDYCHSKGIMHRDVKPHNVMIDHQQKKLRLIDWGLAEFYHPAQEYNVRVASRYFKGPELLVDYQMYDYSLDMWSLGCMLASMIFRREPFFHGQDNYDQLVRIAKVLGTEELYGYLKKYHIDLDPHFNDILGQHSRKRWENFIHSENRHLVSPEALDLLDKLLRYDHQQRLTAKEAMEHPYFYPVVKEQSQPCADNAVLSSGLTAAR

[33] = target: Serine/threonine-protein kinase 17A (Homo sapiens) (UniProt Q9UEE5); assay: Inhibition of DRAK1 (unknown origin) at 1 uM
[34] = Protein binding in ICR mouse plasma by equilibrium dialysis; format: ADME, cell-free; conditions: read-out: PPB (converted)
[35] = target: Serine/threonine-protein kinase PAK 2 (Homo sapiens) (UniProt Q13177); assay: Inhibition of PAK2 (unknown origin) at 1 uM
Chain of Serine/threonine-protein kinase PAK 2 (Homo sapiens) (Q13177 whole entry): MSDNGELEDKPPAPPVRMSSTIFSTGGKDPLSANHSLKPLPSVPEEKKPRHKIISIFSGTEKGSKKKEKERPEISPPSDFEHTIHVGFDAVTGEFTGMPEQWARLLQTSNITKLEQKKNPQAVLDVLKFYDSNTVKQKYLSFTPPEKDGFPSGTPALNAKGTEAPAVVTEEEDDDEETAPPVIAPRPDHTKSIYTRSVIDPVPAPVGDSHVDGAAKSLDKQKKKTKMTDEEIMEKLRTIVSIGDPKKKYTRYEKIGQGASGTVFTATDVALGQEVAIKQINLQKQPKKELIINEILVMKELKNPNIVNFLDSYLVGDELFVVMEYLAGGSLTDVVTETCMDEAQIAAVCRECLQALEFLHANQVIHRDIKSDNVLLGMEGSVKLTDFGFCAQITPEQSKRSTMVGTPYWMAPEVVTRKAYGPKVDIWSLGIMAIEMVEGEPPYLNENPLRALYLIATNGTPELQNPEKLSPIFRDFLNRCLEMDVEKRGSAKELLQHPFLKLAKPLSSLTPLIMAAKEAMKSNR

[36] = target: Tau-tubulin kinase 1 (Homo sapiens) (UniProt Q5TCY1); assay: Inhibition of TTBK1 (unknown origin) at 1 uM
[37] = target: Leukocyte tyrosine kinase receptor (Homo sapiens) (UniProt P29376); assay: Inhibition of TYK1 (unknown origin) at 1 uM
Chain of Leukocyte tyrosine kinase receptor (Homo sapiens) (P29376 whole entry): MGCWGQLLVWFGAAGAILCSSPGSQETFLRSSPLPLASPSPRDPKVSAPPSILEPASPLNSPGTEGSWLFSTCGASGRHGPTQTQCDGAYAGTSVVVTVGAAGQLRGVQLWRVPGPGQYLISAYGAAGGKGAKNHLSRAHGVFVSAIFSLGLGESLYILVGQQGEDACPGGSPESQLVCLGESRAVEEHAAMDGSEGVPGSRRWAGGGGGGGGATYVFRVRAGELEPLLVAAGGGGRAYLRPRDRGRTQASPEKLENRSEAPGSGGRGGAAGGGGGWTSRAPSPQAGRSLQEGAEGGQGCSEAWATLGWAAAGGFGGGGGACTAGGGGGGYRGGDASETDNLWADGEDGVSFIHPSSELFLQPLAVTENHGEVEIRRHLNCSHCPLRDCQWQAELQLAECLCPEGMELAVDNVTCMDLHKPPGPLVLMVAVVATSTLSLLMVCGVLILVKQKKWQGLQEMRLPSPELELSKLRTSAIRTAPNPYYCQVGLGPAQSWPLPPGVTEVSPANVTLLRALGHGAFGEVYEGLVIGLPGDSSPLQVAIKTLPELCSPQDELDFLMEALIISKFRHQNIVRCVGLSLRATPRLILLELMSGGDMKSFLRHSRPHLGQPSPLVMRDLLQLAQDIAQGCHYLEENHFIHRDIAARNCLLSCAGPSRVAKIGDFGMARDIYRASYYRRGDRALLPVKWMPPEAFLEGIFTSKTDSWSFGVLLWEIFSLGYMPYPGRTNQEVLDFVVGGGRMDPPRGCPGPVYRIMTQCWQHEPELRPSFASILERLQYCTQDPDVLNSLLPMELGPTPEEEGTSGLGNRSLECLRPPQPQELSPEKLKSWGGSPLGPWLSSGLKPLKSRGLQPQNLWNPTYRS

[38] = target: Mitogen-activated protein kinase 8 (Homo sapiens) (UniProt P45983); assay: Inhibition of JNK1 (unknown origin) at 1 uM
[39] = target: Dual specificity mitogen-activated protein kinase kinase 4 (Homo sapiens) (UniProt P45985); assay: Inhibition of MKK4 (unknown origin) at 1 uM
[40] = target: Serine/threonine-protein kinase PLK1 (Homo sapiens) (UniProt P53350); assay: Inhibition of PLK1 (unknown origin) at 1 uM
[41] = target: Proto-oncogene tyrosine-protein kinase Src (Homo sapiens) (UniProt P12931); assay: Inhibition of c-SRC (unknown origin) at 1 uM
[42] = target: CDK18/Cyclin Y (Homo sapiens) (UniProt Q07002+Q8ND76); assay: Inhibition of CDK18/cyclin-Y (unknown origin) at 1 uM; format: protein-complex assay
[43] = target: Macrophage-stimulating protein receptor (Homo sapiens) (UniProt Q04912); assay: Inhibition of RON (unknown origin) at 1 uM

## OCCOCc1cn(CCNc2nonc2/C(=N/O)Nc2ccc(F)c(Br)c2)nn1
[1]
  inhibition: inactive
[2]
  inhibition: inactive
[3]
  inhibition: inactive
[4]
  inhibition: inactive
HCT-116 [5]
  Activity: 62.6%
[6]
  inhibition: inactive
[7]
  inhibition: inactive
[8]
  inhibition: inactive
[9]
  inhibition: inactive
[10]
  inhibition: inactive
[11]
  inhibition: inactive
[12]
  inhibition: inactive
[13]
  inhibition: inactive
[14]
  inhibition: inactive
[15]
  inhibition: inactive
[16]
  inhibition: inactive
[17]
  AUC(0-t): 3040 ng·h/mL
[18]
  inhibition: inactive
HCT-116 [19]
  IC50: 56.1 µM
[20]
  inhibition: inactive
[21]
  inhibition: inactive
[22]
  inhibition: inactive
[23]
  inhibition: inactive
Mus musculus
  inhibition: Active
[24]
  inhibition: inactive
[25]
  inhibition: inactive
[26]
  inhibition: inactive
[27]
  inhibition: inactive
[28]
  inhibition: inactive
[29]
  inhibition: inactive
[30]
  inhibition: inactive
[31]
  inhibition: inactive
[32]
  inhibition: inactive
[33]
  inhibition: inactive
[34]
  fraction unbound: 0.0968
[35]
  inhibition: inactive
[36]
  inhibition: inactive
[37]
  inhibition: inactive
[38]
  inhibition: inactive
[39]
  inhibition: inactive
[40]
  inhibition: inactive
[41]
  inhibition: inactive
[42]
  inhibition: inactive
[43]
  inhibition: inactive
